Test system: NCI-H211 tumor spheroids, viability percent test/control
Experiment: Anticancer human tumor NCI-H211 cell line growth inhibition;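 further: spheroids exposed to agents for seven days before readout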
Settings: spheroids with HUVEC and MSC; for IC50: curve of first compound; for viability, T/C: stronger effect = lower value
Text: Multicellular complex tumor spheroid response to DNA repair inhibitors in combination with DNA-damaging drugs
This study explores the anticancer activities of DNA-damaging drugs and inhibitors of DNA damage repair, both as single agents and in combinations. Complex tumor spheroids comprised of malignant cells, endothelial cells and mesenchymal stem cells served as an in vitro model for human solid tumors. This model system incorporates physiologically relevant features and patient-derived or established malignant cell lines with clinically relevant genetic alterations from many tumor types. Twenty-six patient-derived or established malignant cell lines were evaluated representing sarcoma, melanoma, small cell lung cancer (SCLC), non-small cell lung cancer (NSCLC), as well as bladder, ovarian and pancreatic cancers. The concentration ranges selected for each drug and investigational agent were based upon clinically achievable concentrations if the clinical Cmax of the agent was known.
Compounds. The drugs and compounds olaparib (NSC753686), talazoparib (NSC767125), berzosertib (NSC777718), elimusertib (NSC800525), nedisertib (NSC802822), VX-984 (NSC792969), AZD-1390 (NSC803789), temozolomide (NSC362856), topotecan (NSC609699), trabectedin (NSC813783), staurosporine (NSC755774), and gemcitabine (NSC613327) were obtained from the National Cancer Institute (NCI) Developmental Therapeutics Program Chemical Repository. The FDA-approved anticancer drug set is available from the Developmental Therapeutics Program at https://dtp.cancer.gov/organization/dscb/obtaining/available_plates.htm. […] The stock solutions were prepared in dimethyl sulfoxide (DMSO, Sigma-Aldrich, St. Louis, MO, cat. D2650) at 400-fold the tested concentration and stored at -70 degrees C. Prior to their use, the stock solutions were diluted in fresh medium and the final DMSO concentration in the assay was 0.25% (v/v). All drugs and investigational agents were tested over a range starting from a high concentration at or near the clinical Cmax and decreasing in half-log increments. If the clinical Cmax for an agent had not been determined, the highest concentration tested was 10 microM.
Cell Lines. The patient-derived cancer cell (PDC) lines: 156681-154-R-J1-PDC, 283228-195-R-J1-PDC, 287954-098-R-J1-PDC, 292921-168-R-J2-PDC, 349418-098-R-PDC, 425362-245-T-J1-PDC, 556581-035-R-J1-PDC, and BL0293-F563-PDC were received from the NCI Patient-Derived Models Repository (PDMR, https://pdmr.cancer.gov). The established cell lines HS-SY-2 (RRID:CVCL_8719), MPNST, and SYO-1 (RRID:CVCL_7146) were obtained from the Sloan Kettering Institute. The alveolar soft parts sarcoma cell line ASPS-1 (RRID:CVCL_S738) was established at the NCI and grown from internal seed stocks. The following established cell lines were purchased from the American Type Culture Collection (ATCC, Manassas, VA): G-401 (ATCC, cat. CRL-1441, RRID:CVCL_0270), SW982 (ATCC, cat. HTB-93, RRID:CVCL_1734), VA-ES-BJ (ATCC, cat. CRL-2138, RRID:CVCL_1785), NCI-H719 (ATCC, cat. CRL-5837, RRID:CVCL_1582), NCI-H196 (ATCC, cat. CRL-5823, RRID:CVCL_1509), NCI-H841 (ATCC, cat. CRL-5845, RRID:CVCL_1595), NCI-H1618 (ATCC, cat. CRL-5879, RRID:CVCL_1480), NCI-H1876 (ATCC, cat. CRL-5902, RRID:CVCL_1503), DMS 114 (ATCC, cat. CRL-2066; RRID:CVCL_1174), NCI-H211 (ATCC, cat. CRL-5824; RRID:CVCL_1529), and SW 1271 (ATCC, cat. CRL-2177, RRID:CVCL_1716). The small cell lung cancer cell line COR-L88 was purchased from Sigma-Aldrich (cat. 92031917-1VL, RRID:CVCL_1141). The non-small cell lung cancer cell lines NCI-H226 (RRID:CVCL_1544) and NCI-H322M (RRID:CVCL_1557) were established at the NCI and grown from internal seed stocks. Pooled donor human umbilical vein endothelial cells (HUVEC, Lonza, cat. CC-2519) and human mesenchymal stem cells (hMSC, Lonza, cat. PT-2501) were purchased from Lonza (Walkersville, MD).
Cell Culture. All cells were maintained in an incubator at 37 degrees C and 5% CO2 with 95% humidity. […]

[1] = second compound 0.003 µM, first compound 0.00949 µM
[2] = second compound 0.003 µM, first compound 0.03 µM
[3] = second compound 0.003 µM, first compound 0.0949 µM
[4] = second compound 0.003 µM, first compound 0.3 µM
[5] = second compound 0.003 µM, first compound 0.949 µM
[6] = second compound 0.003 µM, first compound 3 µM
[7] = second compound 0.00949 µM, first compound 0.00949 µM
[8] = second compound 0.00949 µM, first compound 0.03 µM
[9] = second compound 0.00949 µM, first compound 0.0949 µM
[10] = second compound 0.00949 µM, first compound 0.3 µM
[11] = second compound 0.00949 µM, first compound 0.949 µM
[12] = second compound 0.00949 µM, first compound 3 µM
[13] = second compound 0.03 µM, first compound 0.00949 µM
[14] = second compound 0.03 µM, first compound 0.03 µM
[15] = second compound 0.03 µM, first compound 0.0949 µM
[16] = second compound 0.03 µM, first compound 0.3 µM
[17] = second compound 0.03 µM, first compound 0.949 µM
[18] = second compound 0.03 µM, first compound 3 µM
[19] = second compound 0.0949 µM, first compound 0.00949 µM
[20] = second compound 0.0949 µM, first compound 0.03 µM
[21] = second compound 0.0949 µM, first compound 0.0949 µM
[22] = second compound 0.0949 µM, first compound 0.3 µM
[23] = second compound 0.0949 µM, first compound 0.949 µM
[24] = second compound 0.0949 µM, first compound 3 µM
[25] = second compound 0.3 µM, first compound 0.00949 µM
[26] = second compound 0.3 µM, first compound 0.03 µM
[27] = second compound 0.3 µM, first compound 0.0949 µM
[28] = second compound 0.3 µM, first compound 0.3 µM
[29] = second compound 0.3 µM, first compound 0.949 µM
[30] = second compound 0.3 µM, first compound 3 µM

Compound: CNCc1ccc(-c2cc(-c3nc(-c4ccc(S(=O)(=O)C(C)C)cc4)cnc3N)on2)cc1 + CC[C@@]1(O)C(=O)OCc2c1cc1n(c2=O)Cc2cc3c(CN(C)C)c(O)ccc3nc2-1
- IC50 (second compound 0.003 µM): 9.61 nM
- IC50 (second compound 0.00949 µM): < 9.49 nM
- IC50 (second compound 0.03 µM): < 9.49 nM
- IC50 (second compound 0.0949 µM): < 9.49 nM
- IC50 (second compound 0.3 µM): < 9.49 nM
- viability, T/C [1]: 50.5%
- viability, T/C [2]: 9.5%
- viability, T/C [3]: 0.85%
- viability, T/C [4]: 0.92%
- viability, T/C [5]: 0.05%
- viability, T/C [6]: 0.11%
- viability, T/C [7]: 3.19%
- viability, T/C [8]: 1.35%
- viability, T/C [9]: 1.06%
- viability, T/C [10]: 1.09%
- viability, T/C [11]: 0.11%
- viability, T/C [12]: 0.11%
- viability, T/C [13]: 0.96%
- viability, T/C [14]: 0.98%
- viability, T/C [15]: 0.97%
- viability, T/C [16]: 1.07%
- viability, T/C [17]: 0.14%
- viability, T/C [18]: 0.11%
- viability, T/C [19]: 1.04%
- viability, T/C [20]: 1.29%
- viability, T/C [21]: 1.06%
- viability, T/C [22]: 0.67%
- viability, T/C [23]: 0.12%
- viability, T/C [24]: 0.13%
- viability, T/C [25]: 0.95%
- viability, T/C [26]: 1.15%
- viability, T/C [27]: 1.37%
- viability, T/C [28]: 0.82%
- viability, T/C [29]: 0.21%
- viability, T/C [30]: 0.18%

Compound: Cn1ncnc1[C@H]1c2n[nH]c(=O)c3cc(F)cc(c23)N[C@@H]1c1ccc(F)cc1 + CC[C@@]1(O)C(=O)OCc2c1cc1n(c2=O)Cc2cc3c(CN(C)C)c(O)ccc3nc2-1
- IC50 (second compound 0.003 µM): < 9.49 nM
- IC50 (second compound 0.00949 µM): < 9.49 nM
- IC50 (second compound 0.03 µM): < 9.49 nM
- IC50 (second compound 0.0949 µM): < 9.49 nM
- IC50 (second compound 0.3 µM): < 9.49 nM
- viability, T/C [1]: 1.01%
- viability, T/C [2]: 1.19%
- viability, T/C [3]: 1.05%
- viability, T/C [4]: 1.13%
- viability, T/C [5]: 1.18%
- viability, T/C [6]: 1.13%
- viability, T/C [7]: 1.17%
- viability, T/C [8]: 1.18%
- viability, T/C [9]: 1.24%
- viability, T/C [10]: 1.21%
- viability, T/C [11]: 1.11%
- viability, T/C [12]: 1.49%
- viability, T/C [13]: 0.91%
- viability, T/C [14]: 1.11%
- viability, T/C [15]: 1.25%
- viability, T/C [16]: 1.13%
- viability, T/C [17]: 1.14%
- viability, T/C [18]: 1.06%
- viability, T/C [19]: 1.14%
- viability, T/C [20]: 1.25%
- viability, T/C [21]: 1.17%
- viability, T/C [22]: 1.17%
- viability, T/C [23]: 1.1%
- viability, T/C [24]: 1.34%
- viability, T/C [25]: 1.06%
- viability, T/C [26]: 1.01%
- viability, T/C [27]: 1.1%
- viability, T/C [28]: 1.37%
- viability, T/C [29]: 1.05%
- viability, T/C [30]: 1.06%

Compound: O=C(c1cc(Cc2n[nH]c(=O)c3ccccc23)ccc1F)N1CCN(C(=O)C2CC2)CC1 + CC[C@@]1(O)C(=O)OCc2c1cc1n(c2=O)Cc2cc3c(CN(C)C)c(O)ccc3nc2-1
- IC50 (second compound 0.003 µM): < 94.9 nM
- IC50 (second compound 0.00949 µM): < 94.9 nM
- IC50 (second compound 0.03 µM): < 94.9 nM
- IC50 (second compound 0.0949 µM): < 94.9 nM
- IC50 (second compound 0.3 µM): < 94.9 nM
- viability, T/C [3]: 9.62%
- viability, T/C [4]: 3.33%
- viability, T/C [5]: 1.25%
- viability, T/C [6]: 1.06%
- viability, T/C (second compound 0.003 µM, first compound 9.49 µM): 0.76%
- viability, T/C (second compound 0.003 µM, first compound 30 µM): 0.99%
- viability, T/C [9]: 1.09%
- viability, T/C [10]: 1.14%
- viability, T/C [11]: 1.15%
- viability, T/C [12]: 1.2%
- viability, T/C (second compound 0.00949 µM, first compound 9.49 µM): 1.06%
- viability, T/C (second compound 0.00949 µM, first compound 30 µM): 0.96%
- viability, T/C [15]: 1.07%
- viability, T/C [16]: 1.19%
- viability, T/C [17]: 1.2%
- viability, T/C [18]: 1.12%
- viability, T/C (second compound 0.03 µM, first compound 9.49 µM): 0.99%
- viability, T/C (second compound 0.03 µM, first compound 30 µM): 0.78%
- viability, T/C [21]: 1.07%
- viability, T/C [22]: 1.03%
- viability, T/C [23]: 1.31%
- viability, T/C [24]: 1.37%
- viability, T/C (second compound 0.0949 µM, first compound 9.49 µM): 0.98%
- viability, T/C (second compound 0.0949 µM, first compound 30 µM): 1.09%
- viability, T/C [27]: 1.03%
- viability, T/C [28]: 1.25%
- viability, T/C [29]: 1%
- viability, T/C [30]: 1.05%
- viability, T/C (second compound 0.3 µM, first compound 9.49 µM): 1%
- viability, T/C (second compound 0.3 µM, first compound 30 µM): 0.91%

Reference: PubChem BioAssay AID1845209 (Molecular Pharmacology Branch, DTP, NCI, 2023)
